Measurements: patent publication EP1568373A2, “Inducing cellular immune responses to HER2/neu using peptide and nucleic acid compositions” (priority 1999, dated 2001)
Where no end group is shown, it is not given here.

Target: DRB1*0701 (DR7) (Homo sapiens, UniProt P01903+P01911, A100R/A102G/A103Q/D57E/D86V/E43K/F76Y/K127E/L162R/M171V/P40G/Q125H/Q99D/R33Q/R42Y/R54Q/S133A/S66F/T210M/V115G/Y107V/Y59L/Y89S)
Test: HLA class II binding assay, purified HLA molecules
Conditions: Her2/neu DR supertype primary binding, Table XXVIII

Going from CSCC[C@H](NC(=O)[C@H](CC(C)C)NC(=O)[C@H](CCC(N)=O)NC(=O)[C@@H](NC(=O)[C@@H](NC(=O)[C@H](CC(C)C)NC(=O)[C@H](CCC(N)=O)NC(=O)[C@@H](NC(=O)[C@@H](N)[C@@H](C)O)C(C)C)C(C)C)[C@@H](C)O)C(=O)N1CCC[C@H]1C(=O)N[C@@H](Cc1ccc(O)cc1)C(=O)NCC(=O)N[C@@H](CS)C(=O)N[C@@H](CC(C)C)C(=O)N[C@@H](CC(C)C)C(=O)O [Her2/neu.793] to CSCC[C@H](NC(=O)[C@H](CC(C)C)NC(=O)[C@H](CCC(=O)O)NC(=O)[C@H](Cc1c[nH]c2ccccc12)NC(=O)[C@@H](NC(=O)[C@@H](NC(=O)[C@@H](NC(=O)CN)C(C)C)[C@@H](C)O)C(C)C)C(=O)N[C@H](C(=O)N[C@@H](Cc1ccccc1)C(=O)NCC(=O)N[C@@H](C)C(=O)N[C@@H](CCCCN)C(=O)N1CCC[C@H]1C(=O)N[C@@H](Cc1ccc(O)cc1)C(=O)O)[C@@H](C)O [Her2/neu.909], the IC50 falls from 2500 nM to 1470 nM (1.7-fold). The second is the more potent here.

Going from CC(C)C[C@H](NC(=O)[C@H](C)NC(=O)[C@H](Cc1ccc(O)cc1)NC(=O)[C@H](CC(N)=O)NC(=O)[C@H](CC(=O)O)NC(=O)[C@H](CCC(=O)O)NC(=O)[C@H](Cc1ccccc1)NC(=O)[C@H](CC(C)C)NC(=O)[C@H](CCC(N)=O)NC(=O)[C@@H](N)[C@@H](C)O)C(=O)N[C@@H](C)C(=O)N[C@H](C(=O)N[C@@H](CC(C)C)C(=O)N[C@@H](CC(=O)O)C(=O)N[C@@H](CC(N)=O)C(=O)O)C(C)C [Her2/neu.105] to CC[C@H](C)[C@H](NC(=O)[C@H](CCC(N)=O)NC(=O)[C@H](CCSC)NC(=O)[C@H](CS)NC(=O)[C@H](Cc1c[nH]c2ccccc12)NC(=O)[C@H](CC(N)=O)NC(=O)[C@H](CC(C)C)NC(=O)[C@@H](N)CC(C)C)C(=O)N[C@@H](C)C(=O)N[C@@H](CCCCN)C(=O)NCC(=O)N[C@@H](CCSC)C(=O)N[C@@H](CO)C(=O)N[C@@H](Cc1ccc(O)cc1)C(=O)N[C@@H](CC(C)C)C(=O)O [Her2/neu.822], the IC50 falls from 1560 nM to 208 nM (7.5-fold).

Target: A*0101 (Homo sapiens, UniProt P04439, A114D/A174V/A182V/D101N/D185E/E176A/E190D/L180R/Q94H/R68K/S129P/T187R/V100A/V91M/W191G)
Test: HLA class I binding assay, purified HLA molecules, inhibition of 125I-radiolabeled probe peptide
Conditions: HLA-A1 Motif-Bearing Peptides, Table XXV

Going from HTDMLRHLY [Her2/neu.42.T2] to CC(C)[C@H](N)C(=O)N[C@H](C(=O)N[C@@H](C)C(=O)N[C@@H](CS)C(=O)N1CCC[C@H]1C(=O)N[C@@H](Cc1ccc(O)cc1)C(=O)N[C@@H](CC(N)=O)C(=O)N[C@@H](Cc1ccc(O)cc1)C(=O)O)[C@@H](C)O [Her2/neu.296], the IC50 rises from 1.9 nM to 250 nM (130-fold).

Compared with ETMPNPEGRY [Her2/neu.280.T2], ETHLDMLRHLY [Her2/neu.40] is 23-fold higher in IC50: 3.9 nM for the first, 89 nM for the second.

Going from VFETLEEITGY [Her2/neu.399] to GTDLFEDNY [Her2/neu.104.D3], the IC50 falls from 5560 nM to 0.9 nM (6200-fold). The second is the more potent here.

GTDMKLRLPY [Her2/neu.28.Y10] was tested, and the IC50 was 50 nM.

Target: DRB1*0101 (DR1) (Homo sapiens, UniProt P01903+P01911, A100R/D57E/F55L/F60I/F76Y/I96L/L162R/M171V/P40L/Q125E/R42F/V115G/Y59C)
Test: HLA class II binding assay, purified HLA molecules
Conditions: Her2/neu DR supertype primary binding, Table XXVIII

Compared with VEPLTPSGAMPNQAQ [Her2/neu.697], CC[C@H](C)[C@H](NC(=O)CNC(=O)[C@@H](NC(=O)[C@@H](NC(=O)[C@H](C)NC(=O)[C@H](CO)NC(=O)[C@@H](NC(=O)[C@@H](NC(=O)[C@H](CO)NC(=O)[C@@H](NC(=O)[C@@H](N)CC(C)C)[C@@H](C)O)[C@@H](C)CC)[C@@H](C)CC)C(C)C)C(C)C)C(=O)N[C@@H](CC(C)C)C(=O)N[C@@H](CC(C)C)C(=O)N[C@H](C(=O)N[C@H](C(=O)O)C(C)C)C(C)C [Her2/neu.651] is lower in IC50: over 6250 nM for the first, 26 nM for the second.

First: CC[C@H](C)[C@H](NC(=O)[C@H](CCCCN)NC(=O)[C@H](CCCCN)NC(=O)[C@@H](N)CS)C(=O)N[C@@H](Cc1ccccc1)C(=O)NCC(=O)N[C@@H](CO)C(=O)N[C@@H](CC(C)C)C(=O)N[C@@H](C)C(=O)N[C@@H](Cc1ccccc1)C(=O)N[C@@H](CC(C)C)C(=O)N1CCC[C@H]1C(=O)N[C@@H](CCC(=O)O)C(=O)N[C@@H](CO)C(=O)N[C@@H](Cc1ccccc1)C(=O)O [Her2/neu.367]
Second: ETELVEPLTPSGAMP [Her2/neu.693]
The IC50 of the first is 40-fold lower: 21 nM for the first, 833 nM for the second.

Going from CC[C@H](C)[C@H](NC(=O)CNC(=O)[C@@H](NC(=O)[C@@H](NC(=O)[C@H](C)NC(=O)[C@H](CO)NC(=O)[C@@H](NC(=O)[C@@H](NC(=O)[C@H](CO)NC(=O)[C@@H](NC(=O)[C@H](CC(C)C)NC(=O)[C@@H]1CCCN1C(=O)[C@H](CO)NC(=O)[C@H](C)N)[C@@H](C)O)[C@@H](C)CC)[C@@H](C)CC)C(C)C)C(C)C)C(=O)N[C@@H](CC(C)C)C(=O)O [Her2/neu.648] to CSCC[C@H](NC(=O)[C@H](CC(C)C)NC(=O)[C@H](CCC(N)=O)NC(=O)[C@@H](NC(=O)[C@@H](NC(=O)[C@H](CC(C)C)NC(=O)[C@H](CCC(N)=O)NC(=O)[C@@H](NC(=O)[C@@H](N)[C@@H](C)O)C(C)C)C(C)C)[C@@H](C)O)C(=O)N1CCC[C@H]1C(=O)N[C@@H](Cc1ccc(O)cc1)C(=O)NCC(=O)N[C@@H](CS)C(=O)N[C@@H](CC(C)C)C(=O)N[C@@H](CC(C)C)C(=O)O [Her2/neu.793], the IC50 falls from 56 nM to 22 nM (2.5-fold).

Compared with DMKLRLPASPETHLD [Her2/neu.30], CC(C)C[C@H](NC(=O)[C@H](C)NC(=O)[C@H](Cc1ccc(O)cc1)NC(=O)[C@H](CC(N)=O)NC(=O)[C@H](CC(=O)O)NC(=O)[C@H](CCC(=O)O)NC(=O)[C@H](Cc1ccccc1)NC(=O)[C@H](CC(C)C)NC(=O)[C@H](CCC(N)=O)NC(=O)[C@@H](N)[C@@H](C)O)C(=O)N[C@@H](C)C(=O)N[C@H](C(=O)N[C@@H](CC(C)C)C(=O)N[C@@H](CC(=O)O)C(=O)N[C@@H](CC(N)=O)C(=O)O)C(C)C [Her2/neu.105] is 53-fold lower in IC50: 5000 nM for the first, 94 nM for the second.

Compared with QPDVRPQPPSPREGP [Her2/neu.1142], CC[C@H](C)[C@H](NC(=O)[C@H](CCC(N)=O)NC(=O)[C@H](CCSC)NC(=O)[C@H](CS)NC(=O)[C@H](Cc1c[nH]c2ccccc12)NC(=O)[C@H](CC(N)=O)NC(=O)[C@H](CC(C)C)NC(=O)[C@@H](N)CC(C)C)C(=O)N[C@@H](C)C(=O)N[C@@H](CCCCN)C(=O)NCC(=O)N[C@@H](CCSC)C(=O)N[C@@H](CO)C(=O)N[C@@H](Cc1ccc(O)cc1)C(=O)N[C@@H](CC(C)C)C(=O)O [Her2/neu.822] is 1200-fold lower in IC50: 7140 nM for the first, 6 nM for the second.

CC[C@H](C)[C@H](NC(=O)[C@H](C)NC(=O)[C@@H](NC(=O)[C@@H]1CCCN1C(=O)[C@@H](NC(=O)[C@H](CCCCN)NC(=O)[C@@H](NC(=O)[C@H](CC(N)=O)NC(=O)[C@H](CCC(=O)O)NC(=O)CN)C(C)C)[C@@H](C)CC)C(C)C)C(=O)N[C@@H](CCCCN)C(=O)N[C@H](C(=O)N[C@@H](CC(C)C)C(=O)N[C@@H](CCCNC(=N)N)C(=O)N[C@@H](CCC(=O)O)C(=O)O)C(C)C [Her2/neu.743] and CC[C@H](C)[C@H](NC(=O)CNC(=O)[C@H](CC(=O)O)NC(=O)[C@H](Cc1ccc(O)cc1)NC(=O)[C@@H]1CCCN1C(=O)[C@H](CCCCN)NC(=O)[C@H](C)NC(=O)CNC(=O)[C@H](Cc1ccccc1)NC(=O)[C@@H](NC(=O)[C@H](CCSC)NC(=O)[C@H](CC(C)C)NC(=O)[C@H](CCC(=O)O)NC(=O)[C@H](Cc1c[nH]c2ccccc12)NC(=O)[C@@H](N)C(C)C)[C@@H](C)O)C(=O)O [Her2/neu.912] are within 1.5-fold of each other in IC50: 79 nM for the first, 58 nM for the second.

First: CSCC[C@H](NC(=O)[C@@H](NC(=O)[C@H](Cc1ccc(O)cc1)NC(=O)[C@H](C)NC(=O)[C@H](CCC(=O)O)NC(=O)[C@@H](N)CC(=O)O)C(C)C)C(=O)N[C@@H](C)C(=O)NCC(=O)N[C@H](C(=O)NCC(=O)N[C@@H](CO)C(=O)N1CCC[C@H]1C(=O)N[C@@H](Cc1ccc(O)cc1)C(=O)N[C@H](C(=O)N[C@@H](CO)C(=O)O)C(C)C)C(C)C [Her2/neu.769]
Second: ITDFGLARLLDIDET [Her2/neu.861]
The IC50 of the first is 10-fold lower: 100 nM for the first, 1040 nM for the second. The first is the more potent here.

For LLVVVLGVVFGILIK [Her2/neu.662], the IC50 was over 6250 nM.

Target: DRB1*0401 (DR4w4) (Homo sapiens, UniProt P01903+P01911, A100K/A169T/F76Y/I96L/K127E/L162R/M171V/N62H/P40V/Q125Y/R42H/S133A/S149N/S66Y/V115G/V209L/W38E)
Test: HLA class II binding assay, purified HLA molecules
Conditions: Her2/neu DR supertype primary binding, Table XXVIII

Compared with CC[C@H](C)[C@H](NC(=O)[C@H](CCC(=O)O)NC(=O)[C@@H](N)CCCCN)C(=O)N[C@@H](CC(C)C)C(=O)N[C@@H](CC(=O)O)C(=O)N[C@@H](CCC(=O)O)C(=O)N[C@@H](C)C(=O)N[C@@H](Cc1ccc(O)cc1)C(=O)N[C@H](C(=O)N[C@@H](CCSC)C(=O)N[C@@H](C)C(=O)NCC(=O)N[C@H](C(=O)NCC(=O)N[C@@H](CO)C(=O)O)C(C)C)C(C)C [Her2/neu.765], CSCC[C@H](NC(=O)[C@@H](NC(=O)[C@H](Cc1ccc(O)cc1)NC(=O)[C@H](C)NC(=O)[C@H](CCC(=O)O)NC(=O)[C@@H](N)CC(=O)O)C(C)C)C(=O)N[C@@H](C)C(=O)NCC(=O)N[C@H](C(=O)NCC(=O)N[C@@H](CO)C(=O)N1CCC[C@H]1C(=O)N[C@@H](Cc1ccc(O)cc1)C(=O)N[C@H](C(=O)N[C@@H](CO)C(=O)O)C(C)C)C(C)C [Her2/neu.769] is 31-fold lower in IC50: 6160 nM for the first, 196 nM for the second.

CC[C@H](C)[C@H](NC(=O)[C@H](CCSC)NC(=O)[C@H](Cc1c[nH]c2ccccc12)NC(=O)[C@H](CS)NC(=O)[C@H](CCCCN)NC(=O)[C@@H](NC(=O)[C@H](CCSC)NC(=O)[C@@H](NC(=O)[C@H](CCSC)NC(=O)[C@H](Cc1ccc(O)cc1)NC(=O)[C@@H](NC(=O)[C@@H](N)CC(=O)O)C(C)C)[C@@H](C)CC)C(C)C)C(=O)N[C@@H](CC(=O)O)C(=O)N[C@@H](CO)C(=O)N[C@@H](CCC(=O)O)C(=O)O [Her2/neu.950] showed an IC50 of 790 nM.

Target: A*2402 (Homo sapiens, UniProt P04439, D101N/D140Y/D185E/E176V/E190D/F33S/G103R/G107R/I119L/I121M/I306V/K335N/L105A/L180Q/L300P/N151K/N90K/Q86E/Q94H/R106L/R138H/R89G/T104I/T345S/V100E/W191G/Y123F)
Test: HLA class I binding assay, purified HLA molecules
Conditions: HLA-A24 Motif-Bearing Peptides, Table XXVI

CC[C@H](C)[C@H](NC(=O)[C@@H]1CCCN1C(=O)[C@H](CCSC)NC(=O)[C@H](Cc1ccc(O)cc1)NC(=O)[C@@H](N)CO)C(=O)N[C@@H](Cc1c[nH]c2ccccc12)C(=O)N[C@@H](CCCCN)C(=O)N[C@@H](Cc1ccccc1)C(=O)O [Her2/neu.609] and AYSLTLQGF [Her2/neu.440.F9] are within 1.5-fold of each other in IC50: 38 nM for the first, 52 nM for the second.

First: LYISAWPDSF [Her2/neu,410.F10]
Second: LYISAWPDSL [Her2/neu.410]
The IC50 of the first is 14-fold lower: 10 nM for the first, 143 nM for the second.

Compared with AYPDSLPDF [Herw/neu414.Y2F9], CYGLGMEHF [Her2/neu.342.F9] is 6.8-fold higher in IC50: 24 nM for the first, 164 nM for the second. The first is the more potent here.

First: AYSLTLQGL [Her2/neu.440]
Second: TYLPTNASF [Her2/neu.63.F9]
The IC50 of the first is 2.1-fold higher: 92 nM for the first, 44 nM for the second.
